Laboratory results from patent publication US9265771B2, “Method for treating Lyme disease” (Zoetis Services LLC, priority 2012, dated 2016).
Where “and” joins values, the source holds several entries; their conditions need not be identical. Identical values can stand only once.

Key:
B. burgdorferi [1] = assay: Study B: microscopic examination of joints and skin at necropsy; type: in vivo, beagle dogs; details: for Number of Joints with Changes as Described for Lyme disease: N = 8
Method: (§1) Thirty-two (18 male and 14 female) beagle dogs were sero-negative for Borrelia burgdorferi, not vaccinated with any Borrelia spp vaccines, and acclimated at the study facility for seven days. The study was conducted under National Research Council guidelines (1996). […] Field-caught Ixodes from the northeast USA were placed on the dogs without containment chambers for 10 days; after ticks fed to repletion, dogs were treated with two applications of an approved topical acaricide with a 30-day interval between applications.
(§2) Forty days post-challenge, and prior to antibiotic treatments, blood was collected from each dog as were two skin biopsy punch samples near tick attachment sites. Blood was collected approximately monthly post-treatment. Skin biopsies were taken near the tick attachment site on Days 48/49, 118, 146, 180, and 315. Serum antibodies to Borrelia were assayed using the IDEXX SNAP-4Dx and QC6 ELISA. In cooperation with Cornell University, serum samples were analyzed using fluorescent-bead-based multiplex assays detecting antibodies against B. burgdorferi outer surface proteins OspA, OspC, and OspF. Data were expressed as median fluorescent intensities (MFI), and shown to be specific and sensitive to provide interpretative guidelines regarding infection. The skin biopsies were collected for a polymerase chain reaction (PCR; FlaB) assay and cultured for spirochete detection. At the end of the study, blood and skin biopsies were collected and synovial tissue from the joints were harvested at necropsy.
(§3) On Day 75 and Day 89 Convenia was administered to the eight dogs in T04 (8 mg/kg bodyweight; subcutaneous injection). The other treated groups received their respective regimens daily and orally for 30 days from Days 75 to 104. […] Dogs in T01 served as infected, untreated, controls. Inter-treatment comparisons to evaluate antibiotic efficacy included clinical signs, serology, culture results and pathology.
At necropsy ten joints were harvested per each dog, formalin-fixed, stained and examined microscopically. Joints included the carpus, elbow, shoulder, stifle and tarsus on both the right and left limbs. Further, a section of skin near tick attachment sites was evaluated from each dog. There were two dogs in the Convenia group (25%) with tissues showing changes as described for Lyme disease, compared to seven controls (87.5%) and three (37.5%) to four (50.0%) dogs in the other antibiotic-treated groups (Table 7). […] The Convenia group had the lowest incidence of joint changes with six affected of 80.

[2] = tested on: B. burgdorferi sensu stricto (B31 strain); assay: In-vitro assessment of cefovecin efficacy (live spirochetes in culture by light microscopy); type: cell-based, Borrelia burgdorferi; details: for Number of B. burgdorferi spirochetes per field-of-view (geometric mean per ten field of views): cultures A, C
Method: B. burgdorferi sensu stricto (B31 strain) was cultured. The experimental (triplicate) groups included a control, 0.02 μg/mL cefovecin, and 2 μg/mL cefovecin. Cultures were viewed by light microscopy at 0, 6, 24, 30, 48, and 54 hours post inoculation to assess number of live spirochetes (Table 1).

B. burgdorferi [3] = assay: Study A: SNAP-4Dx ELISA in tick-infected dogs; type: in vivo, beagle dogs; details: N=8
Excerpt: Three outer surface proteins (Osp) on B. burgdorferi are important for diagnosis and prevention, and are expressed by the organism in response to its local environment. […] OspF is another surface protein that is generally observed in late-stage disease. The C in […] refers to a 25-amino acid, C6 peptide in the sixth invariable region of an outer membrane lipoprotein (VIsE). Antibody against C6 is highly accurate as a serologic diagnosis of Lyme disease independent of a subject's (e.g., canine) vaccination status. Further, the generation of C6 antibodies implies an active infection with viable spirochetes. Serological methods for detecting B. burgdorfer/Lyme disease were conducted using the IDEXX qualitative SNAP-4Dx ELISA and the Quantitative C6 (Quant C6 or QC6) diagnostic kits, which are enzyme linked immunosorbent assays against the previously described 25-amino-acid C6 peptide. […]
Twenty-three adult female beagle dogs were used in this study; all were sero-negative for Borrelia, not vaccinated with any Borrelia spp vaccines, and acclimated at the study facility for seven days prior to any study activities. […] Dogs were monitored 21-days post-challenge for pyrexia, and the entire post-challenge period for clinical signs of Lyme disease (lameness, ataxia, anorexia, lymphadenopathy and depression). […]

[4] = dog, in vivo, sc, 8 mg/kg
Method: On Days 83 and 97, Convenia was administered (8 mg/kg bodyweight; subcutaneous injection). Treated dogs, 8 B. burgdorferi-positive and 4 controls, were compared to untreated cohorts (8 B. burgdorferi-positive, and 3 controls).

[5] = tested on: B. burgdorferi outer surface protein OspC; assay: Study B: fluorescent-bead-based multiplex assay, antibodies against OspC; type: in vivo, beagle dogs; details: Day 111
Method: as §1
as §2, with “At the end of the study, blood and skin biopsies were collected and synovial tissue from the joints were harvested at necropsy.” left out

B. burgdorferi [6] = assay: Study B: SNAP-4Dx ELISA in tick-infected dogs; type: in vivo, beagle dogs; details: for SNAP-4Dx Positives, Number of Dogs: N = 8/group
Excerpt: Three outer surface proteins (Osp) on B. burgdorferi are important for diagnosis and prevention, and are expressed by the organism in response to its local environment. […] OspF is another surface protein that is generally observed in late-stage disease. The C in […] refers to a 25-amino acid, C6 peptide in the sixth invariable region of an outer membrane lipoprotein (VIsE). Antibody against C6 is highly accurate as a serologic diagnosis of Lyme disease independent of a subject's (e.g., canine) vaccination status. Further, the generation of C6 antibodies implies an active infection with viable spirochetes. Serological methods for detecting B. burgdorfer/Lyme disease were conducted using the IDEXX qualitative SNAP-4Dx ELISA and the Quantitative C6 (Quant C6 or QC6) diagnostic kits, which are enzyme linked immunosorbent assays against the previously described 25-amino-acid C6 peptide. QC6 ELISA data, units/mL, are useful for guidance in initiating and evaluating response to therapy (See Levy S A, O'Connor T P, Hanscom J L, Shields P, et al. Quantitative measurement of a C6 antibody following antibiotic treatment of Borrelia burgdorferi antibody-positive, nonclinical dogs. Clin Vacc Immunol 2008; 15(1):115-119 and Littman M P, Goldstein R E, Labato M A, et al. ACVIM Small Animal Concensus Statement on Lyme Disease in Dogs: Diagnosis, Treatment and Prevention. J Vet Intern Med 2006; 20: 422-434).
as §1, §2, §3

[7] = joints, skin, 8 dogs/group, necropsy

With `CO/N=C(\C(=O)N[C@@H]1C(=O)N2C(C(=O)[O-])=C([C@@H]3CCCO3)CS[C@H]12)c1csc(N)n1.[Na+]` [Convenia, (6R,7R)-7-[[(2Z)-(2-amino-4-thiazolyl)(methoxyimino)acetyl]-amino]-8-oxo-3-[(2S)-tetrahydro-2-furanyl]-5-thia-1-azabicyclo[4.2.0]oct-2-ene-2-carboxylic acid, monosodium salt] the “Number of Joints with Changes as Described for Lyme disease, Cumulative” value (B. burgdorferi [1]; 80 total/group) was 6, the “Number of Joints with Changes as Described for Lyme disease” value (B. burgdorferi [1]; Carpus L) was 1 and the “Number of Joints with Changes as Described for Lyme disease” value (B. burgdorferi [1]; Carpus R) was 1. For the same compound, the “Number of Joints with Changes as Described for Lyme disease” value (B. burgdorferi [1]; Elbow L) was 0, the “Number of Joints with Changes as Described for Lyme disease” value (B. burgdorferi [1]; Elbow R) was 1 and the “Number of Joints with Changes as Described for Lyme disease” value (B. burgdorferi [1]; Shoulder L) was 0. The “Number of Joints with Changes as Described for Lyme disease” value (B. burgdorferi [1]; Shoulder R) was 0, the “Number of Joints with Changes as Described for Lyme disease” value (B. burgdorferi [1]; Stifle L) was 1 and the “Number of Joints with Changes as Described for Lyme disease” value (B. burgdorferi [1]; Stifle R) was 2. For the same compound, the “Number of Joints with Changes as Described for Lyme disease” value (B. burgdorferi [1]; Tarsus L) was 0, the “Number of Joints with Changes as Described for Lyme disease” value (B. burgdorferi [1]; Tarsus R) was 0 and the “No Tissue Changes, # Dogs” value (B. burgdorferi [1]; [7]) was 6. For the same compound, the “No Tissue Changes, %” value (B. burgdorferi [1]; [7]) was 75%, the “Tissue Changes Described for Lyme Disease, # Dogs” value (B. burgdorferi [1]; [7]) was “two” and the “Tissue Changes Described for Lyme Disease, %” value (B. burgdorferi [1]; [7]) was 25%. The “Tissue Changes Described for Lyme Disease, # Dogs” value (B. burgdorferi [1]; joints, skin, 8 dogs/group, necropsy, listed as T04, monosodium salt) was 2, the “Incidence of joint lesions, lower than in dogs administered doxycycline or amoxicillin orally for 30 days” value (B. burgdorferi [1]; microscopic evaluation of articular joints) was 2 fold and the “Number of B. burgdorferi spirochetes per field-of-view (geometric mean per ten field of views)” value (“Number … (geometric mean per ten field of views)” below) ([2]; 0.02 μg/mL, 0 hours) was 0. The “Number … (geometric mean per ten field of views)” value ([2]; 0.02 μg/mL, 24 hours, listed as cefovecin, monosodium salt) was 1.7 and 2.1 and 2.0, the “Number … (geometric mean per ten field of views)” value ([2]; 0.02 μg/mL, 48 hours, listed as cefovecin, monosodium salt) was 7.2 and 4.1 and 5.9 and the “Number … (geometric mean per ten field of views)” value ([2]; 0.02 μg/mL, 54 hours, listed as cefovecin, monosodium salt) was 8.1 and 10.2 and 9.0. The “Retardation of growth of B. burgdorferi” value ([2]; 0.02 μg/mL, in 54 hours) was “at least 30%”, the “Time after which B. burgdorferi is eliminated in culture” value ([2]; 2 μg/mL) was “about 24 hours” and the “Number … (geometric mean per ten field of views)” value ([2]; 2 μg/mL, 0 hours) was 0. The “Number … (geometric mean per ten field of views)” value ([2]; 2 μg/mL, 30 hours) was 0, the “Number … (geometric mean per ten field of views)” value ([2]; 2 μg/mL, 48 hours) was 0 and the “Number … (geometric mean per ten field of views)” value ([2]; 2 μg/mL, 54 hours) was 0. The “Dogs SNAP-4Dx positive for B. burgdorferi” value (B. burgdorferi [3]; prior to administration of Convenia on Day 83) was 100%, the “Number of dogs remaining SNAP-4Dx positive” value (B. burgdorferi [3]; through the study (Day 166), 8 mg/kg sc Days 83 and 97) was “five to seven” and the “Adverse or unexpected events” value [4] was “No adverse or unexpected events”. The “Number of dogs above infected threshold (antibody-OspC)” value [5] was “one”, the “SNAP-4Dx Positives, Number of Dogs” value (B. burgdorferi [6]; Day 48 (pre-treatment; antibiotics from Day 75)) was 6 and the “SNAP-4Dx Positives, Number of Dogs” value (B. burgdorferi [6]; Day 111) was 5. The “SNAP-4Dx Positives, Number of Dogs” value (B. burgdorferi [6]; Day 145) was 1, the “SNAP-4Dx Positives, Number of Dogs” value (B. burgdorferi [6]; Day 179) was 2 and the “SNAP-4Dx Positives, Number of Dogs” value (B. burgdorferi [6]; Day 221) was 0. For the same compound, the “SNAP-4Dx Positives, Number of Dogs” value (B. burgdorferi [6]; Day 251) was 0, the “SNAP-4Dx Positives, Number of Dogs” value (B. burgdorferi [6]; Day 281) was 0 and the “SNAP-4Dx Positives, Number of Dogs” value (B. burgdorferi [6]; Day 315) was 0. For the same compound, the “SNAP-4Dx Positives, Number of Dogs” value (B. burgdorferi [6]; Day −15 (pre-infection)) was 0 and the SNAP-4Dx positive dogs (B. burgdorferi [6]; rest of the study after Day 179) was “none positive”.
